From article PMC10223284, “Category-Based Toxicokinetic Evaluations of Data-Poor Per- and Polyfluoroalkyl Substances (PFAS) using Gas Chromatography Coupled with Mass Spectrometry” (Toxics, 2023)
Several values for one entry are separate records, joined by “and”; a condition that tells them apart may be missing. Identical values can stand only once. Like-named read-outs stand apart in the source and are kept apart here.

Assays:
[1] = test system: pooled human cryopreserved primary hepatocyte suspensions; experiment: Hepatic metabolic stability (hepatocyte clearance) assay, substrate depletion; type: in vitro ADME; conditions: for Bkgd-Sub Clearance (µL/min/106 hepatocytes): background-subtracted; for Concentration (nM), Time 0 min / Concentration (nM), Time 15 min / Concentration (nM), Time 30 min / Concentration (nM), Time 60 min / Concentration (nM), Time 120 min / Concentration (nM), Time 240 min: hepatocyte incubation, Rep 1-3, start conc 1000 nM; for Linear Regression Results, Best-Fit Values, Slope / Linear Regression Results, Best-Fit Values, Clearance / Linear Regression Results, Best-Fit Values, Half Life: hepatocyte time course; for Linear Regression Results, Best-Fit Values, Clearance / Linear Regression Results, Best-Fit Values, Half Life: NS = slope not significant
Excerpt: William’s Medium E (Gibco A1217601), dexamethasone, and cell maintenance cocktail B (Gibco CM4000) were obtained from Thermo Fisher Scientific (Waltham, MA, USA). Hepatosure OptiThaw media (P/N K8000; Lot No. 18–1–0322) was obtained from Sekisui Xenotech (Kansas City, KS, USA). Trypan blue solution (P/N 1450021) was obtained from Bio-Rad (Hercules, CA, USA). Pooled human cryopreserved primary hepatocyte suspensions were obtained from BioIVT (Westbury, NY, USA) and produced using nontransplantable tissue. The human 50-donor pool (mixed gender; Cat X0080005; Lot MYC), selected from BioIVT’s commercially available, prepooled lots, was selected following review of vendor-generated metabolic characterization information. Pooled, mixed-sex human plasma from de-identified donors was obtained from a commercial vendor that operates a U.S. Food and Drug Administration-licensed and inspected donor center (BioIVT bioivt.com (accessed 12 May 2023). Donors comprised five males and five females and ranged from 20 to 50 years of age. Plasma collected using anticoagulant K2EDTA was sterile-filtered ([…]) and stored at <−70 °C until use.
The hepatic metabolic stability assay measures the loss of a parent compound over time in a substrate-depletion approach. Briefly, hepatocyte suspensions, after a viability assessment, were diluted in complete William’s medium E (containing dexamethasone and cell maintenance cocktail B) prior to addition to 96-well polypropylene plates containing an equal volume of media spiked with the test compound (1 μM assay concentration; assay cell density = 50,000 cells/100 μL) and maintained at 37 °C with shaking. At each time point, relevant plates were crashed with an equal volume of ice-cold acetonitrile, centrifuged, and supernatant transferred to a new plate prior to storage at <−70 °C until quantitative analysis. Controls, run in parallel, included cell-free (i.e., media only) and metabolically inactivated hepatocytes to evaluate abiotic chemical stability in the aqueous media matrix with and without cellular protein. In preliminary runs, these controls were run at T0 and T240 only. If significant instability was noted, the hepatocyte clearance assay was rerun, including cell-free samples at each time point and metabolically inactivated hepatocytes at selected time points.
To process samples for quantitative analysis, samples were thawed and mixed. An aliquot of sample was removed and diluted in acetonitrile (1 part sample plus 9 parts acetonitrile) containing the relevant ISs selected for the PFAS being analyzed (See Table S2). The target at instrument concentration of each IS was 10 pg/μL.
The curves were generated using concentration/response ratios from the target analyte and IS, with either linear or quadratic regression models. The model and weighting, if necessary, were chosen to most accurately reflect the response of each compound and was evaluated by recalculating the individual calibration points using the curve. An acceptable model reflected an accuracy of ±30% of the theoretical value.
Hepatic metabolic clearance data were plotted in semi-log format (ln concentration vs. time) with three replicates at each time point, as previously described. […] The equations described below are used to calculate the chemical half-life (T½) and intrinsic in vitro clearance (Clin vitro) with units of μL/(min × million hepatocytes). In Equation (3), 2000 is a scalar used to adjust the assay cell number up to be consistent with units of 1 million cells in the Clint equation.
Negative controls, including media only and metabolically inactivated hepatocyte controls, were included to monitor abiotic loss (i.e., background clearance) during the assay. Where significant compound loss occurred using the analysis described above, background clearance rates were calculated and used to background-adjust hepatic metabolic clearance rates. […]

[2] = Abiotic loss in negative controls of the hepatocyte clearance assay (cell-free media, metabolically inactivated hepatocytes); type: in vitro ADME; conditions: for Hep_Stab_Fail: flag for stability failure in hepatocyte clearance assay controls (1 or Fst = fail, 0 = pass); for HT BkgdCl, Half Life / HT BkgdCl, Slope: heat treated hepatocytes control; for HT BkgdCl, Half Life / HT BkgdCl, Slope / No Cells BkgdCl, Half Life / No Cells BkgdCl, Slope: 0 vs 240 min; for Negative Controls, Heat Treated (HT), concentration at 0 min / Negative Controls, Heat Treated (HT), concentration at 240 min: heat treated hepatocytes; for Negative Controls, Heat Treated (HT), concentration at 0 min / Negative Controls, Heat Treated (HT), concentration at 240 min / Negative Controls, No cells (NC), concentration at 0 min / Negative Controls, No cells (NC), concentration at 240 min: Rep 1-3; for No Cells BkgdCl, Half Life / No Cells BkgdCl, Slope: no cells control
Procedure, shortened: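 Abiotic stability was checked with media-only and inactivated-hepatocyte controls, run at T0 and T240 or, on rerun, at more time points. Compound at 1 μM, 37 °C, acetonitrile quench. Loss rates served for background subtraction, and ≥50% loss by T120 meant exclusion.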

[3] = In vitro-in vivo extrapolation (IVIVE) to Css and administered equivalent dose (AED); parameters: species or system human; conditions: for Clhep: IVIVE, hepatocyte Clint scaled to whole-liver clearance; for AED: administered equivalent dose from LOEC and Css; for Fub: fub=fup/(B:P), Fub set to 1 if needed; for CLint: scaled with HPGL 110 mill cells/g, Vl 1596 g
Method: Using the experimentally generated PPB (fraction unbound in plasma, fup) and hepatic Clint data, IVIVE was performed as previously described to calculate human steady-state plasma concentrations (Css). Briefly, experimental measures of fup are adjusted using blood:plasma partitioning information to estimate the fraction unbound in blood (fub). Experimental hepatocyte Clint data are scaled up to represent whole-liver clearance (L/h). […] Once estimated, these Css values are considered in conjunction with published in vitro bioactivity concentrations (i.e., lowest-observed effective concentrations, or LOECs) to calculate AEDs (Table 2). See Table S10 for all relevant IVIVE inputs, scalars, calculations, and outputs.

[4] = test system: human primary cells; conditions: cited from earlier work
[5] = test system: human plasma; experiment: Chemical stability in plasma over the UC assay time course (T5hr/T1hr); conditions: for PPB_Stab_Fail: flag for stability failure in the plasma protein binding assay (1 = fail, 0 = pass); for Mean Stability: mean T5hr/T1hr ratio over all replicates and runs, plasma; for Stability (T5hr/ T1hr), replicates A, B, C: single replicate of one UC run
[6] = test system: human plasma; experiment: Ultracentrifugation (UC) plasma protein binding assay, fraction unbound in plasma (fup); conditions: for Fraction Unbound (fu), Run-specific Avg: average of one UC run (run date in line above); for Mean fu: fraction unbound in human plasma, some values based on eLOQ; for Mean fu / fup: ultracentrifugation; for fup: 10 μM, 37 °C; for Fraction Unbound (fu), replicates A, B, C: single replicate of one UC run (aqueous fraction / Time 5 hr)
[7] = Assuming 1 mg/kg/day dose rate, BW 70 kg
[8] = human steady-state plasma concentration, assuming 1 mg/kg/day dosage
[9] = BioSeek lowest-observed effect concentration used for AED
[10] = minimum lowest-observed effect concentration, BioSeek platform

With `OCC(F)(F)C(F)(F)C(F)(F)CO` [Hexafluoroamylene glycol] the “Bkgd-Sub Clearance (µL/min/106 hepatocytes)” value [1] was 0.00 µL/min/106 hepatocytes, the “Concentration (nM), Time 0 min” value [1] was 904.289 nM and 891.557 nM and 657.581 nM and the “Concentration (nM), Time 15 min” value [1] was 889.716 nM and 801.576 nM and 938.868 nM. For the same compound, the “Concentration (nM), Time 30 min” value [1] was 774.463 nM and 733.048 nM and 756.418 nM, the “Concentration (nM), Time 60 min” value [1] was 901.107 nM and 929.789 nM and 820.604 nM and the “Concentration (nM), Time 120 min” value [1] was 865.693 nM and 807.871 nM and 671.853 nM. For the same compound, the “Concentration (nM), Time 240 min” value [1] was 674.351 nM and 611.715 nM and 490.915 nM, the “Linear Regression Results, Best-Fit Values, Slope” value [1] was -0.001398 and the “Linear Regression Results, Best-Fit Values, Clearance” value [1] was 2.796. For the same compound, the “Linear Regression Results, Best-Fit Values, Half Life” value [1] was 495.708, the “clearance rate in hepatocytes” value ([1]; human hepatocyte suspensions, values as rounded or worded in text) was “no clearance” and the Hep_Stab_Fail [2] was 0. The “HT BkgdCl, Half Life” value [2] was 329.06, the “HT BkgdCl, Slope” value [2] was -0.002106 and the “Negative Controls, Heat Treated (HT), concentration at 0 min” value [2] was 941.377 nM and 735.79 nM and 794.754 nM. The “Negative Controls, Heat Treated (HT), concentration at 240 min” value [2] was 487.17 nM and 595.696 nM and 416.449 nM, the “No Cells BkgdCl, Half Life” value [2] was 490.099 and the “No Cells BkgdCl, Slope” value [2] was -0.001414. For the same compound, the “Negative Controls, No cells (NC), concentration at 0 min” value [2] was 830.122 nM and 683.027 nM and 707.501 nM, the “Negative Controls, No cells (NC), concentration at 240 min” value [2] was 479.464 nM and 568.092 nM and 532.117 nM and the Css [3, 7] was 0.44 mg/L and 2.07 uM. It also gave a Clhep [3] of 0.000 L/h, an AED [3] of 0.9667 mg/kg/day and a Fub [3] of 1. For the same compound, the Css [3, 8] was 2.07 µM, the Css ([3]; human steady-state plasma concentration, assuming 1 mg/kg/day dosage, listed as hexafluoroamylene glycol) was 2.1 to 2.7 µM and the CLint [3] was 0 µL/min. For the same compound, the LOEC [4, 9] was 2.00 µM, the LOEC [4, 10] was 2 µM and the PPB_Stab_Fail [5] was 0. The “Mean Stability” value [5] was 0.996, the “Stability (T5hr/ T1hr), replicates A, B, C” value [5] was 1.079 and 0.9916 and 0.917 and the “Fraction Unbound (fu), Run-specific Avg” value [6] was 0.68. For the same compound, the Mean fu [6] was 0.6770, the fup ([6]; human plasma) was 0.6770 and the fup ([6]; human plasma, listed as hexafluoroamylene glycol) was 0.68. The “Fraction Unbound (fu), replicates A, B, C” value [6] was 0.6223 and 0.7422 and 0.6663.
In the case of 3-(Perfluoro-2-butyl) propane-1,2-diol, the Clint.1.Med ([1]; Bayesian analysis median, 1 μM assay concentration (Table S9)) is reported as 4.6, the “Bkgd-Sub Clearance (µL/min/106 hepatocytes)” value [1] is reported as 5.876 µL/min/106 hepatocytes and the “Unadj Clint” value ([1]; hepatocyte clearance, Conc 1000 nM, not background adjusted) is reported as 8.61. The “Concentration (nM), Time 0 min” value [1] was 880.591 nM and 1037.48 nM and 1054.86 nM, the “Concentration (nM), Time 15 min” value [1] was 858.26 nM and 1099.86 nM and 993.717 nM and the “Concentration (nM), Time 30 min” value [1] was 742.136 nM and 974.371 nM and 915.81 nM. The “Concentration (nM), Time 60 min” value [1] was 904.196 nM and 908.986 nM and 744.943 nM, the “Concentration (nM), Time 120 min” value [1] was 623.052 nM and 608.094 nM and 642.654 nM and the “Concentration (nM), Time 240 min” value [1] was 400.866 nM and 351.17 nM and 326.466 nM. For the same compound, the “Linear Regression Results, Best-Fit Values, Slope” value [1] was -0.004305, the “Linear Regression Results, Best-Fit Values, Clearance” value [1] was 8.61 and the “Linear Regression Results, Best-Fit Values, Half Life” value [1] was 160.976. The “In Vitro Clint” value ([1]; pooled human hepatocyte suspensions, 1 μM) was 5.88 μL/min/10^6 cells, the “Unadj in vitro Clint” value ([1]; unadjusted hepatocyte intrinsic clearance) was 8.61 and the Hep_Stab_Fail [2] was 0. For the same compound, the “HT BkgdCl, Half Life” value [2] was 285.42, the “HT BkgdCl, Slope” value [2] was -0.002428 and the “Negative Controls, Heat Treated (HT), concentration at 0 min” value [2] was 1083.95 nM and 2011.47 nM and 1037.82 nM. The “Negative Controls, Heat Treated (HT), concentration at 240 min” value [2] was 725.383 nM and 763.18 nM and 711.759 nM, the “No Cells BkgdCl, Half Life” value [2] was 506.95 and the “No Cells BkgdCl, Slope” value [2] was -0.001367. The “Negative Controls, No cells (NC), concentration at 0 min” value [2] was 1136.56 nM and 1061.97 nM, the “Negative Controls, No cells (NC), concentration at 240 min” value [2] was 792.448 nM and 800.439 nM and 781.338 nM and the Css [3, 7] was 0.09 mg/L and 0.30 uM. The Clhep [3] was 28.460 L/h, the AED [3] was 6.5951 mg/kg/day and the Fub [3] was 0.672. For the same compound, the Css [3, 8] was 0.30 µM, the CLint [3] was 1032293 µL/min and the LOEC [4, 9] was 2.00 µM. For the same compound, the LOEC [4, 10] was 2 µM, the “Stability (T5hr/ T1hr), Run-specific Avg” value ([5]; average of one UC run (run date in line above)) was 0.962 and the PPB_Stab_Fail [5] was 0. For the same compound, the “Mean Stability” value [5] was 0.965, the Fstable.Med ([5]; median fraction stable in plasma, UC assay Level4) was 0.232 and the “Stability (T5hr/ T1hr), replicates A, B, C” value [5] was 0.883 and 0.994 and 1.018. For the same compound, the “Fraction Unbound (fu), Run-specific Avg” value [6] was 0.37, the Mean fu [6] was 0.3696 and the fup ([6]; human plasma) was 0.3696. The “Mean Fu” value ([6]; mean fraction unbound over all replicates and runs, UC assay, human plasma) was 0.370, the Fup.Med ([6]; median fraction unbound in plasma, UC assay Level4) was 0.364 and the Fup.point ([6]; point estimate of fraction unbound in plasma, UC assay Level4) was 0.37. For the same compound, the “Fraction Unbound (fu), replicates A, B, C” value [6] was 0.349 and 0.339 and 0.421.
